Measurements reported in patent US9994551B2, “Pyridazine derivatives as RORc modulators” (Genentech, Inc., priority 2015, dated 2018).

Biological target: T1, RORc ligand binding domain (Homo sapiens, UniProt P51449)
T1 construct: host or cells: E. coli
T1 sequence (P51449 269-508 limits assumed): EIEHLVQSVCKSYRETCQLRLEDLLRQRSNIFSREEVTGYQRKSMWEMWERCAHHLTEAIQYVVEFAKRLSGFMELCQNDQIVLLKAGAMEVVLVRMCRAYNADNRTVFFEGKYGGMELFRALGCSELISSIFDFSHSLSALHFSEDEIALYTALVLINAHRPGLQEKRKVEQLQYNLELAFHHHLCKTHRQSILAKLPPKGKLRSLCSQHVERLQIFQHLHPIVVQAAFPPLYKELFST
Experiment: In vitro RORc ligand binding assay (25-[3H]hydroxycholesterol displacement, filter binding)

Structure (SMILES)	IC50 [nM]
CC1(C)[C@H]2CC[C@]1(Oc1ncccn1)c1nnc(-c3c(F)cccc3F)cc12 [Compound 14, (5S,8R)-3-(2,6-difluorophenyl)-9,9-dimethyl-8-(pyrimidin-2-yloxy)-5,6,7,8-tetrahydro-5,8-methanocinnoline]	84
CC1(C)[C@H]2CC[C@]1([C@H]1CCCN(S(C)(=O)=O)C1)c1nnc(-c3c(F)cccc3F)cc12 [Compound 95, (5R,8R)-3-(2,6-difluorophenyl)-9,9-dimethyl-8-((R)-1-(methylsulfonyl)piperidin-3-yl)-5,6,7,8-tetrahydro-5,8-methanocinnoline]	344
COC(=O)N1CCO[C@H]([C@@]23CC[C@@H](c4cc(-c5c(F)cccc5F)nnc42)C3(C)C)C1 [Compound 85, (R)-methyl 2-((5R,8R)-3-(2,6-difluorophenyl)-9,9-dimethyl-5,6,7,8-tetrahydro-5,8-methanocinnolin-8-yl)morpholine-4-carboxylate]	69.8
CC[C@@H](O[C@@]12CC[C@@H](c3cc(-c4c(F)cccc4F)nnc31)C2(C)C)C(=O)N(C)CCOC [Compound 100, (R)-2-(((5S,8R)-3-(2,6-difluorophenyl)-9,9-dimethyl-5,6,7,8-tetrahydro-5,8-methanocinnolin-8-yl)oxy)-N-(2-methoxyethyl)-N-methylbutanamide]	46.4
CC1(C)[C@H]2CC[C@]1([C@H]1CN(c3ncn[nH]3)CCO1)c1nnc(-c3c(F)cccc3F)cc12 [Compound 144, 2-[5-(2,6-difluorophenyl)-11,11-dimethyl-3,4-diazatricyclo[6.2.1.02,7]undeca-2,4,6-trien-1-yl]-4-(1H-1,2,4-triazol-5-yl)morpholine]	34
CC1(C)[C@H]2CC[C@]1([C@@H]1CN(C(N)=O)CCO1)c1nnc(-c3c(F)cccc3F)cc12 [Compound 68, (R)-2-((5R,8R)-3-(2,6-difluorophenyl)-9,9-dimethyl-5,6,7,8-tetrahydro-5,8-methanocinnolin-8-yl)morpholine-4-carboxamide]	56.8
Cc1n[nH]c(N2CCC[C@H]([C@@]34CC[C@@H](c5cc(-c6c(F)cccc6F)nnc53)C4(C)C)C2)n1 [Compound 173, 5-(2,6-difluorophenyl)-11,11-dimethyl-1-[1-(3-methyl-1H-1,2,4-triazol-5-yl)-3-piperidyl]-3,4-diazatricyclo[6.2.1.02,7]undeca-2,4,6-triene]	2.8
CC1(C)[C@H]2CC[C@]1([C@@H]1CN(C(N)=O)CCN1)c1nnc(-c3c(F)cccc3F)cc12 [Compound 184, 3-[5-(2,6-difluorophenyl)-11,11-dimethyl-3,4-diazatricyclo[6.2.1.02,7]undeca-2,4,6-trien-1-yl]piperazine-1-carboxamide]	29
CC1(C)[C@H]2CC[C@]1(Oc1nccnc1C(=O)NCCO)c1nnc(-c3c(F)cccc3F)cc12 [Compound 18, 3-(((5S,8R)-3-(2,6-difluorophenyl)-9,9-dimethyl-5,6,7,8-tetrahydro-5,8-methanocinnolin-8-yl)oxy)-N-(2-hydroxyethyl)pyrazine-2-carboxamide]	340
CCNC(=O)[C@@H](CC)O[C@@]12CC[C@@H](c3cc(-c4c(F)cccc4F)nnc31)C2(C)C [Compound 22, (R)-2-(((5S,8R)-3-(2,6-difluorophenyl)-9,9-dimethyl-5,6,7,8-tetrahydro-5,8-methanocinnolin-8-yl)oxy)-N-ethylbutanamide]	1010
CN1CCO[C@H]([C@@]23CC[C@@H](c4cc(-c5c(F)cccc5F)nnc42)C3(C)C)C1 [Compound 67, (R)-2-((5R,8R)-3-(2,6-difluorophenyl)-9,9-dimethyl-5,6,7,8-tetrahydro-5,8-methanocinnolin-8-yl)-4-methylmorpholine]	215
CC1(C)[C@H]2CC[C@]1([C@H]1CCCN(C(=O)NC3COC3)C1)c1nnc(-c3c(F)cccc3F)cc12 [Compound 157, 3-[5-(2,6-difluorophenyl)-11,11-dimethyl-3,4-diazatricyclo[6.2.1.02,7]undeca-2,4,6-trien-1-yl]-N-(oxetan-3-yl)piperidine-1-carboxamide]	6.1
Cc1n[nH]c(N2CCO[C@H]([C@@]34CC[C@@H](c5cc(-c6c(F)cccc6F)nnc53)C4(C)C)C2)n1 [Compound 142, 2-[5-(2,6-difluorophenyl)-11,11-dimethyl-3,4-diazatricyclo[6.2.1.02,7]undeca-2,4,6-trien-1-yl]-4-(3-methyl-1H-1,2,4-triazol-5-yl)morpholine]	19
CC1(C)[C@H]2CC[C@]1([C@H]1CCCN(c3ccncn3)C1)c1nnc(-c3c(F)cccc3F)cc12 [Compound 164, 5-(2,6-difluorophenyl)-11,11-dimethyl-1-(1-pyrimidin-4-yl-3-piperidyl)-3,4-diazatricyclo[6.2.1.02,7]undeca-2,4,6-triene]	20
CC1(C)C2CCC1(C1CCCN(C(=O)c3cnoc3)C1)c1nnc(-c3c(F)cccc3F)cc12 (stereo not drawn) [Compound 160, [3-[5-(2,6-difluorophenyl)-11,11-dimethyl-3,4-diazatricyclo[6.2.1.02,7]undeca-2,4,6-trien-1-yl]-1-piperidyl]-isoxazol-4-yl-methanone]	200
CC1(C)[C@H]2CC[C@]1([C@H]1CCCN(C(=O)c3cccnn3)C1)c1nnc(-c3c(F)cccc3F)cc12 [Compound 168, [3-[5-(2,6-difluorophenyl)-11,11-dimethyl-3,4-diazatricyclo[6.2.1.02,7]undeca-2,4,6-trien-1-yl]-1-piperidyl]-pyridazin-3-yl-methanone]	7.1
CC1(C)[C@H]2CC[C@]1(O[C@@H](C(N)=O)C1CC1)c1nnc(-c3c(F)cccc3F)cc12 [Compound 44]	14.5
CC[C@@H](O[C@@]12CC[C@@H](c3cc(-c4c(F)cccc4F)nnc31)C2(C)C)C(=O)NNC(C)=O [Compound 58, (R)-N′-acetyl-2-(((5S,8R)-3-(2,6-difluorophenyl)-9,9-dimethyl-5,6,7,8-tetrahydro-5,8-methanocinnolin-8-yl)oxy)butanehydrazide]	105
